Results taken from patent US9556180B2, “Pyrazolo[3,4-d]pyrimidinone compounds as inhibitors of the P53/MDM2 interaction” (Novartis AG, priority 2013, dated 2017).

What was measured:
Assay type in all cases: binding
[1] = target: T1, p53-MDM2 interaction (human MDM2 protein, amino acids 2-188) (Homo sapiens, UniProt Q00987); assay: p53-MDM2 Assay 2: slightly modified TR-FRET assay; conditions: 0.1 nM MDM2, 0.1 nM Europium labeled streptavidin, Tecan genios Pro reader
T1 construct: human MDM2 protein (amino acids 2-188); made in house
T1 sequence (Q00987 2-188): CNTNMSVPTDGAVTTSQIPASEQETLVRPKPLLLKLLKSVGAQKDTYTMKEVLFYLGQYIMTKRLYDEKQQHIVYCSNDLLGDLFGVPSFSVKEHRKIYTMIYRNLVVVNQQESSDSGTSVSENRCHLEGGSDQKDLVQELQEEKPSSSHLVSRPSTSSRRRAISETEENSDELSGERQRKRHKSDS
Method: (§1) Time Resolved Fluorescence Energy Transfer (TR-FRET) Assay
(§2) The inhibition of p53-MDM2 and p53-MDM4 interactions is measured by time resolved fluorescence energy transfer (TR-FRET). Fluorescence energy transfer (or Foerster resonance energy transfer) describes an energy transfer between donor and acceptor fluorescent molecules. For this assay, human MDM2 protein (amino acids 2-188) and human MDM4 protein (amino acids 2-185), tagged with a C-terminal biotin moiety, are used in combination with a Europium labeled streptavidin (Perkin Elmer, Inc., Waltham, Mass., USA) serving as the donor fluorophore. The p53 derived, Cy5 labeled peptide Cy5-TFSDLWKLL (p53 aa18-26) is the energy acceptor. Upon excitation of the donor molecule at 340 nm, binding interaction between MDM2 or MDM4 and the p53 peptide induces energy transfer and enhanced response at the acceptor emission wavelength at 665 nm. Disruption of the formation of the p53-MDM2 or p53-MDM4 complex due to an inhibitor molecule binding to the p53 binding site of MDM2 or MDM4 results in increased donor emission at 620 nm. The ratiometric FRET assay readout is calculated from the raw data of the two distinct fluorescence signals measured in time resolved mode (fluorescence 665 nm/fluorescence 620 nm×1000).
(§3) After addition of 1.25 nM MDM2-biotinylated or 2.5 nM MDM4-biotinylated (internal preparations, both MDM2 and MDM4 are biotinylated at the C-terminal of the peptide construct), and 0.625 nM Europium labeled streptavidin (Perkin Elmer), the solution is pre-incubated for 15 minutes at room temperature, then 10 nM Cy5-p53 peptide (internal preparation, the Cy5 dye is directly bound to the N-terminal part of p53 peptide construct) is added before an incubation at room temperature for 15 minutes prior to reading the plate. For measurement of samples, a Victor II microplate reader (Perkin Elmer) is used with the following settings: Excitation 340 nm, Emission Donor 620 nm and Emission Acceptor 665 nm. IC50 values are calculated by curve fitting using XLfit. If not specified, reagents are purchased from Sigma-Aldrich Chemie GmBH, Buchs, Switzerland.
(§4) This assay was used to evaluate compounds displaying inhibition of p53-MDM2 interaction and p53-MDM4 interaction at IC50s of 0.005 to 50 μM (p53-MDM2 Assay 1 and p53-MDM4 Assay 1, respectively). For selected compounds displaying IC50s between […] on MDM2, a slightly modified assay is used with the following adaptations: 0.1 nM MDM2, 0.1 nM Europium labeled streptavidin and Tecan genios Pro is used as a microplate reader for the fluorescence measurements (p53-MDM2 Assay 2).

[2] = target: T2, p53-MDM4 interaction (human MDM4 protein, amino acids 2-185) (Homo sapiens, UniProt O15151); assay: p53-MDM4 Assay 1: TR-FRET inhibition of p53-MDM4 interaction; conditions: 2.5 nM MDM4-biotinylated, 10 nM Cy5-p53 peptide
T2 construct: human MDM4 protein (amino acids 2-185); made in house
T2 sequence (O15151 2-185): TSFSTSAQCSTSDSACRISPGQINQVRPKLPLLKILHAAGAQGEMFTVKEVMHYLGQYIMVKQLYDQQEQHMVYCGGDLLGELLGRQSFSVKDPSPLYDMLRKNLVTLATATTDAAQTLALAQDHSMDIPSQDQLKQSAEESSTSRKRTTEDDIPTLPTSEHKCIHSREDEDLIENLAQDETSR
Method: as §1, §2, §3, §4

[3] = target: T1, p53-MDM2 interaction (human MDM2 protein, amino acids 2-188); assay: p53-MDM2 Assay 1: TR-FRET inhibition of p53-MDM2 interaction; conditions: 1.25 nM MDM2-biotinylated, 10 nM Cy5-p53 peptide
Method: as §1, §2, §3, §4

Row | SMILES | IC50 [1] | IC50 [2] | IC50 [3]
1 | COc1ccc(C#N)cc1-n1nc2c(c1C(C)C)C(c1ccc(Cl)cc1C)N(c1cc(Cl)c(=O)n(C)c1)C(=O)N2 (stereo not shown) [Example 24, 3-(5-(5-Chloro-1-methyl-6-oxo-1,6-dihydropyridin-3-yl)-4-(4-chloro-2-methylphenyl)-3-isopropyl-6-oxo-4,5,6,7-tetrahydro-2H-pyrazolo[3,4-d]pyrimidin-2-yl)-4-methoxybenzonitrile] | 0.14 nM | – | –
2 | Cc1cc(Cl)ccc1C1c2c(nn(CCN(C)C)c2C(C)C)NC(=O)N1c1cccc(Cl)c1F (stereo not shown) [Example 9, 5-(3-chloro-2-fluoro-phenyl)-4-(4-chloro-2-methyl-phenyl)-2-(2-dimethylamino-ethyl)-3-isopropyl-2,4,5,7-tetrahydro-pyrazolo[3,4-d]pyrimidin-6-one] | – | 41700 nM | 16.7 nM
3 | Cc1cc(Cl)ccc1C1c2c(nn(Cc3ccccc3)c2C(C)C)NC(=O)N1c1cccc(Cl)c1F (stereo not shown) [Example 1, 2-Benzyl-5-(3-chloro-2-fluoro-phenyl)-4-(4-chloro-2-methyl-phenyl)-3-isopropyl-2,4,5,7-tetrahydro-pyrazolo[3,4-d]pyrimidin-6-one] | – | 34700 nM | 1.8 nM
4 | COc1ccc(CNC(C)=O)cc1-n1nc2c(c1C(C)C)C(c1ccc(Cl)cc1C)N(c1cc(Cl)c(=O)n(C)c1)C(=O)N2 (stereo not shown) [Example 30, N-(3-(5-(5-Chloro-1-methyl-6-oxo-1,6-dihydropyridin-3-yl)-4-(4-chloro-2-methylphenyl)-3-isopropyl-6-oxo-4,5,6,7-tetrahydro-2H-pyrazolo[3,4-d]pyrimidin-2-yl)-4-methoxybenzyl)acetamide] | 0.21 nM | – | –
5 | COc1ccc(CN)cc1-n1nc2c(c1C(C)C)C(c1ccc(Cl)cc1C)N(c1cc(Cl)c(=O)n(C)c1)C(=O)N2 (stereo not shown) [Example 29, 2-(5-(Aminomethyl)-2-methoxyphenyl)-5-(5-chloro-1-methyl-6-oxo-1,6-dihydropyridin-3-yl)-4-(4-chloro-2-methylphenyl)-3-isopropyl-4,5-dihydro-2H-pyrazolo[3,4-d]pyrimidin-6(7H)-one] | 0.18 nM | – | –
6 | COc1ncc(-n2nc3c(c2C(C)C)C(c2ccc(Cl)cc2C)N(c2cc(Cl)cn(C)c2=O)C(=O)N3)c(OC)n1 (stereo not shown) [Example 32, 5-(5-Chloro-1-methyl-2-oxo-1,2-dihydropyridin-3-yl)-4-(4-chloro-2-methylphenyl)-2-(2,4-dimethoxypyrimidin-5-yl)-3-isopropyl-4,5-dihydro-2H-pyrazolo[3,4-d]pyrimidin-6(7H)-one] | 0.21 nM | – | –
7 | Cc1cc(Cl)ccc1[C@H]1c2c(nn(Cc3ccccc3)c2C(C)C)NC(=O)N1c1cccc(Cl)c1F [Example 2, (S)-2-Benzyl-5-(3-chloro-2-fluorophenyl)-4-(4-chloro-2-methylphenyl)-3-isopropyl-4,5-dihydro-2H-pyrazolo[3,4-d]pyrimidin-6(7H)-one] | – | 18500 nM | 1.8 nM
8 | COc1ccccc1-n1nc2c(c1C(C)C)C(c1ccc(Cl)cc1)N(c1ccc(=O)n(C)c1)C(=O)N2 (stereo not shown) [Example 20, 4-(4-Chloro-phenyl)-3-isopropyl-2-(2-methoxy-phenyl)-5-(1-methyl-6-oxo-1,6-dihydro-pyridin-3-yl)-2,4,5,7-tetrahydro-pyrazolo[3,4-d]pyrimidin-6-one] | – | 4730 nM | 4.8 nM
9 | COc1ccccc1-n1nc2c(c1C(C)C)[C@@H](c1ccc(Cl)cc1C)N(c1cccc(Cl)c1F)C(=O)N2 [Example 7, (R)-5-(3-Chloro-2-fluoro-phenyl)-4-(4-chloro-2-methyl-phenyl)-3-isopropyl-2-(2-methoxy-phenyl)-2,4,5,7-tetrahydro-pyrazolo[3,4-d]pyrimidin-6-one] | – | 19100 nM | 62.2 nM

More lines, now with the values ahead:

Row | IC50 [1] | IC50 [2] | IC50 [3] | SMILES
10 | – | 8570 nM | 5.6 nM | COCCn1cc(N2C(=O)Nc3nn(-c4ccccc4OC)c(C(C)C)c3C2c2ccc(Cl)cc2)cc(Cl)c1=O (stereo not shown) [Example 16, 5-[5-Chloro-1-(2-methoxy-ethyl)-6-oxo-1,6-dihydro-pyridin-3-yl]-4-(4-chloro-phenyl)-3-isopropyl-2-(2-methoxy-phenyl)-2,4,5,7-tetrahydro-pyrazolo[3,4-d]pyrimidin-6-one]
11 | 0.13 nM | – | – | COc1ccc(CNC(C)=O)cc1-n1nc2c(c1C(C)C)C(c1ccc(Cl)cc1C)N(c1cc(Cl)ccc1C)C(=O)N2 (stereo not shown) [Example 26, N-(3-(4-(4-Chloro-2-methylphenyl)-5-(5-chloro-2-methylphenyl)-3-isopropyl-6-oxo-4,5,6,7-tetrahydro-2H-pyrazolo[3,4-d]pyrimidin-2-yl)-4-methoxybenzyl)acetamide]
12 | 0.29 nM | – | – | COc1ncc(-n2nc3c(c2C(C)C)C(c2ccc(Cl)cc2C)N(c2cc(Cl)c(=O)n(C)c2)C(=O)N3)c(OC)n1 (stereo not shown) [Example 31, 5-(5-Chloro-1-methyl-6-oxo-1,6-dihydropyridin-3-yl)-4-(4-chloro-2-methylphenyl)-2-(2,4-dimethoxypyrimidin-5-yl)-3-isopropyl-4,5-dihydro-2H-pyrazolo[3,4-d]pyrimidin-6(7H)-one]
13 | – | 39700 nM | 146 nM | Cc1cc(Cl)ccc1[C@@H]1c2c(nn(Cc3ccccc3)c2C(C)C)NC(=O)N1c1cccc(Cl)c1F [Example 3, (R)-2-Benzyl-5-(3-chloro-2-fluorophenyl)-4-(4-chloro-2-methylphenyl)-3-isopropyl-4,5-dihydro-2H-pyrazolo[3,4-d]pyrimidin-6(7H)-one]
14 | 0.11 nM | – | – | COc1ccc(CNC=O)cc1-n1nc2c(c1C(C)C)C(c1ccc(Cl)cc1C)N(c1cc(Cl)ccc1C)C(=O)N2 (stereo not shown) [Example 27, N-(3-(4-(4-Chloro-2-methylphenyl)-5-(5-chloro-2-methylphenyl)-3-isopropyl-6-oxo-4,5,6,7-tetrahydro-2H-pyrazolo[3,4-d]pyrimidin-2-yl)-4-methoxybenzyl)formamide]
15 | 0.15 nM | – | – | COc1ccc(C#N)cc1-n1nc2c(c1C(C)C)C(c1ccc(Cl)cc1C)N(c1cc(Cl)ccc1C)C(=O)N2 (stereo not shown) [Example 23, 3-(4-(4-Chloro-2-methylphenyl)-5-(5-chloro-2-methylphenyl)-3-isopropyl-6-oxo-4,5,6,7-tetrahydro-2H-pyrazolo[3,4-d]pyrimidin-2-yl)-4-methoxybenzonitrile]
16 | 0.24 nM | – | – | COc1ccc(C(N)=O)cc1-n1nc2c(c1C(C)C)C(c1ccc(Cl)cc1C)N(c1cc(Cl)ccc1C)C(=O)N2 (stereo not shown) [Example 28, 3-(4-(4-Chloro-2-methylphenyl)-5-(5-chloro-2-methylphenyl)-3-isopropyl-6-oxo-4,5,6,7-tetrahydro-2H-pyrazolo[3,4-d]pyrimidin-2-yl)-4-methoxybenzamide]
17 | 0.12 nM | – | – | COc1ccc(CN)cc1-n1nc2c(c1C(C)C)C(c1ccc(Cl)cc1C)N(c1cc(Cl)ccc1C)C(=O)N2 (stereo not shown) [Example 25, 2-(5-(Aminomethyl)-2-methoxyphenyl)-4-(4-chloro-2-methylphenyl)-5-(5-chloro-2-methylphenyl)-3-isopropyl-4,5-dihydro-2H-pyrazolo[3,4-d]pyrimidin-6(7H)-one]
18 | – | 11600 nM | 6.6 nM | COc1ccccc1-n1nc2c(c1C(C)C)C(c1ccc(Cl)cc1)N(c1cc(Cl)ccc1OCCN(C)C)C(=O)N2 (stereo not shown) [Example 17, 5-(5-Chloro-2-(3-(dimethylamino)ethoxy)phenyl)-4-(4-chlorophenyl)-3-isopropyl-2-(2-methoxyphenyl)-4,5-dihydro-2H-pyrazolo[3,4-d]pyrimidin-6(7H)-one]
19 | – | 2360 nM | 2.5 nM | COc1ccccc1-n1nc2c(c1C(C)C)C(c1ccc(Cl)cc1C)N(c1cc(Cl)ccc1OCCN(C)C)C(=O)N2 (stereo not shown) [Example 12, 5-[5-Chloro-2-(2-dimethylamino-ethoxy)-phenyl]-4-(4-chloro-2-methyl-phenyl)-3-isopropyl-2-(2-methoxy-phenyl)-2,4,5,7-tetrahydro-pyrazolo[3,4-d]pyrimidin-6-one]
